Measured values as given in ChEMBL document CHEMBL1250502, “An alignment independent 3D QSAR study of the antiproliferative activity of 1,2,4,5-tetraoxanes” (Eur J Med Chem, 2010).

Key:
[1] = Cytotoxicity against human Fem-X cells; type: functional, cell-based; conditions: for IC50: Homo sapiens, Fem-X; for pIC50: fem-x
HeLa = assay: Cytotoxicity against human HeLa cells; type: functional, cell-based; conditions: for IC50: Homo sapiens, HeLa; for pIC50: hela

Structure (SMILES) | IC50 ([1]; read-out: pIC50 (converted)) [µM] | IC50 (HeLa; read-out: pIC50 (converted)) [µM] | IC50 ([1]; read-out: IC50) [µM] | IC50 (HeLa; read-out: IC50) [µM] | pIC50 [1] | pIC50 (HeLa)
CCCNC(=O)CC[C@@H](C)[C@H]1CC[C@H]2[C@@H]3CC[C@@H]4C[C@]5(CC[C@]4(C)[C@H]3C[C@H](OC(C)=O)[C@]12C)OO[C@@]1(CC[C@@]2(C)[C@H](CC[C@@H]3[C@@H]2C[C@H](OC(C)=O)[C@]2(C)[C@@H]([C@H](C)CCC(=O)NCCC)CC[C@@H]32)C1)OO5 | 22.9 | 33.1 | – | – | – | –
COC(=O)CC[C@@H](C)[C@H]1CC[C@H]2[C@@H]3CC[C@@H]4CC5(CC[C@]4(C)[C@H]3C[C@H](OC(C)=O)[C@]12C)OOC1(CCC2(CCCC2)CC1)OO5 | 42.7 | 10.7 | – | – | – | –
COC(=O)CC[C@@H](C)[C@H]1CC[C@H]2[C@@H]3CC[C@@H]4CC5(CC[C@]4(C)[C@H]3C[C@H](OC(C)=O)[C@]12C)OOC1(CCC2(CCCCCCC2)CC1)OO5 | 51.3 | 10.2 | – | – | – | –
CCCN(CCC)C(=O)CC[C@@H](C)[C@H]1CC[C@H]2[C@@H]3CC[C@@H]4C[C@]5(CC[C@]4(C)[C@H]3C[C@H](OC(C)=O)[C@]12C)OO[C@@]1(CC[C@@]2(C)[C@H](CC[C@@H]3[C@@H]2C[C@H](OC(C)=O)[C@]2(C)[C@@H]([C@H](C)CCC(=O)N(CCC)CCC)CC[C@@H]32)C1)OO5 | 47.9 | 105 | – | – | – | –
CC(=O)O[C@H]1C[C@H]2[C@@H](CC[C@@H]3C[C@]4(CC[C@@]32C)OO[C@@]2(CC[C@@]3(C)[C@H](CC[C@@H]5[C@@H]3C[C@H](OC(C)=O)[C@]3(C)[C@@H]([C@H](C)CCC(=O)N6CCCCC6)CC[C@@H]53)C2)OO4)[C@@H]2CC[C@H]([C@H](C)CCC(=O)N3CCCCC3)[C@@]12C | 79.4 | 89.1 | – | – | – | –
CC(=O)O[C@H]1C[C@H]2[C@@H](CC[C@@H]3C[C@]4(CC[C@@]32C)OO[C@@]2(CC[C@@]3(C)[C@H](CC[C@@H]5[C@@H]3C[C@H](OC(C)=O)[C@]3(C)[C@@H]([C@H](C)CCC=O)CC[C@@H]53)C2)OO4)[C@@H]2CC[C@H]([C@H](C)CCC=O)[C@@]12C | 3.09 | 3.72 | – | – | – | –
CC(=O)O[C@H]1C[C@H]2[C@@H](CC[C@@H]3C[C@]4(CC[C@@]32C)OO[C@@]2(CC[C@@]3(C)[C@H](CC[C@@H]5[C@@H]3C[C@H](OC(C)=O)[C@]3(C)[C@@H]([C@H](C)CCC(=O)O)CC[C@@H]53)C2)OO4)[C@@H]2CC[C@H]([C@H](C)CCC(=O)O)[C@@]12C | 4.17 | 5.25 | – | – | – | –
COC(=O)CNC(=O)CC[C@@H](C)[C@H]1CC[C@H]2[C@@H]3CC[C@@H]4C[C@]5(CC[C@]4(C)[C@H]3C[C@H](OC(C)=O)[C@]12C)OO[C@]1(CC[C@@]2(C)[C@H](CC[C@@H]3[C@@H]2C[C@H](OC(C)=O)[C@]2(C)[C@@H]([C@H](C)CCC(=O)NCC(=O)OC)CC[C@@H]32)C1)OO5 | 4.68 | 3.63 | – | – | – | –
CC(=O)O[C@H]1C[C@H]2[C@@H](CC[C@@H]3C[C@]4(CC[C@@]32C)OO[C@]2(CC[C@@]3(C)[C@H](CC[C@@H]5[C@@H]3C[C@H](OC(C)=O)[C@]3(C)[C@@H]([C@H](C)CCC(=O)N6CCCCC6)CC[C@@H]53)C2)OO4)[C@@H]2CC[C@H]([C@H](C)CCC(=O)N3CCCCC3)[C@@]12C | 102 | 120 | – | – | – | –
CC(=O)O[C@H]1C[C@H]2[C@@H](CC[C@@H]3C[C@]4(CC[C@@]32C)OO[C@]2(CC[C@@]3(C)[C@H](CC[C@@H]5[C@@H]3C[C@H](OC(C)=O)[C@]3(C)[C@@H]([C@H](C)CCC(N)=O)CC[C@@H]53)C2)OO4)[C@@H]2CC[C@H]([C@H](C)CCC(N)=O)[C@@]12C | 6.17 | 6.03 | – | – | – | –
CCCNC(=O)CC[C@@H](C)[C@H]1CC[C@H]2[C@@H]3CC[C@@H]4C[C@]5(CC[C@]4(C)[C@H]3C[C@H](OC(C)=O)[C@]12C)OO[C@]1(CC[C@@]2(C)[C@H](CC[C@@H]3[C@@H]2C[C@H](OC(C)=O)[C@]2(C)[C@@H]([C@H](C)CCC(=O)NCCC)CC[C@@H]32)C1)OO5 | 25.7 | 8.32 | – | – | – | –
CC(=O)O[C@H]1C[C@H]2[C@@H](CC[C@@H]3C[C@]4(CC[C@@]32C)OO[C@]2(CC[C@@]3(C)[C@H](CC[C@@H]5[C@@H]3C[C@H](OC(C)=O)[C@]3(C)[C@@H]([C@H](C)CCC(=O)O)CC[C@@H]53)C2)OO4)[C@@H]2CC[C@H]([C@H](C)CCC(=O)O)[C@@]12C | 7.59 | 9.12 | – | – | – | –
COC(=O)CC[C@@H](C)[C@H]1CC[C@H]2[C@@H]3CC[C@@H]4C[C@]5(CC[C@]4(C)[C@H]3C[C@H](OC(C)=O)[C@]12C)OO[C@]1(CC[C@@]2(C)[C@H](CC[C@@H]3[C@@H]2C[C@H](OC(C)=O)[C@]2(C)[C@@H]([C@H](C)CCC(=O)OC)CC[C@@H]32)C1)OO5 | 19.5 | 20.4 | – | – | – | –
COC(=O)CC[C@@H](C)[C@H]1CC[C@H]2[C@@H]3CC[C@@H]4CC5(CC[C@]4(C)[C@H]3C[C@H](OC(C)=O)[C@]12C)OOC1(CCCCC1)OO5 | 52.5 | 18.6 | – | – | – | –
CCCN(CCC)C(=O)CC[C@@H](C)[C@H]1CC[C@H]2[C@@H]3CC[C@@H]4CC5(CC[C@]4(C)[C@H]3C[C@H](OC(C)=O)[C@]12C)OOC1(CCCCC1)OO5 | 38.9 | 28.2 | – | – | – | –
CC(=O)O[C@H]1C[C@H]2[C@@H](CC[C@@H]3CC4(CC[C@@]32C)OOC2(CCCCC2)OO4)[C@@H]2CC[C@H]([C@H](C)CCC(N)=O)[C@@]12C | 6.03 | 5.25 | – | – | – | –

Structure (SMILES) | IC50 ([1]; read-out: pIC50 (converted)) [µM] | IC50 (HeLa; read-out: pIC50 (converted)) [µM] | IC50 ([1]; read-out: IC50) [µM] | IC50 (HeLa; read-out: IC50) [µM] | pIC50 [1] | pIC50 (HeLa)
CCCNC(=O)CC[C@@H](C)[C@H]1CC[C@H]2[C@@H]3CC[C@@H]4CC5(CC[C@]4(C)[C@H]3C[C@H](OC(C)=O)[C@]12C)OOC1(CCCCC1)OO5 | 13.2 | 6.46 | – | – | – | –
CC(=O)O[C@H]1C[C@H]2[C@@H](CC[C@@H]3CC4(CC[C@@]32C)OOC2(CCCCC2)OO4)[C@@H]2CC[C@H]([C@H](C)CCC(=O)N3CCCCC3)[C@@]12C | 9.12 | 7.24 | – | – | – | –
CCCNC(=O)C1CCC2(CC1)OOC1(CCCCC1)OO2 | 102 | 117 | – | – | – | –
CN(C)CCNC(=O)C1CCC2(CC1)OOC1(CCCCC1)OO2 | 120 | 135 | – | – | – | –
COC(=O)C1CCC2(CC1)OOC1(CCCCC1)OO2 | 72.4 | 75.9 | – | – | – | –
O=C(O)C1CCC2(CC1)OOC1(CCCCC1)OO2 | 155 | 120 | – | – | – | –
CCC1CCC2(CC1)OOC1(CC[C@@]3(C)[C@H](CC[C@@H]4[C@@H]3C[C@H](OC(C)=O)[C@]3(C)[C@@H]([C@H](C)CCC(N)=O)CC[C@@H]43)C1)OO2 (stereo partly specified) | 5.01 | 5.25 | 4.3 | 5.3 | – | –
CCC1CCC2(CC1)OOC1(CC[C@@]3(C)[C@H](CC[C@@H]4[C@@H]3C[C@H](OC(C)=O)[C@]3(C)[C@@H]([C@H](C)CCC(=O)NC)CC[C@@H]43)C1)OO2 (stereo partly specified) | 6.92 | 4.9 | 8.82 | 6.9 | – | –
CCNC(=O)CC[C@@H](C)[C@H]1CC[C@H]2[C@@H]3CC[C@@H]4CC5(CC[C@]4(C)[C@H]3C[C@H](OC(C)=O)[C@]12C)OOC1(CCC(CC)CC1)OO5 (stereo partly specified) | 6.76 | 6.92 | 7 | 6.7 | – | –
CCC1CCC2(CC1)OOC1(CC[C@@]3(C)[C@H](CC[C@@H]4[C@@H]3C[C@H](OC(C)=O)[C@]3(C)[C@@H]([C@@H](C)CCC(N)=O)CC[C@@H]43)C1)OO2 (stereo partly specified) | 4.27 | 4.07 | 4.5 | 4.9 | – | –
CCC1CCC2(CC1)OOC1(CC[C@@]3(C)[C@H](CC[C@@H]4[C@@H]3C[C@H](OC(C)=O)[C@]3(C)[C@@H]([C@@H](C)CCC(=O)NC)CC[C@@H]43)C1)OO2 (stereo partly specified) | 4.47 | 6.76 | 5 | 6.1 | – | –
CCNC(=O)CC[C@H](C)[C@H]1CC[C@H]2[C@@H]3CC[C@@H]4CC5(CC[C@]4(C)[C@H]3C[C@H](OC(C)=O)[C@]12C)OOC1(CCC(CC)CC1)OO5 (stereo partly specified) | 8.91 | 6.92 | 6.7 | 6.9 | – | –
CC(=O)O[C@H]1C[C@H]2[C@@H](CC[C@@H]3CC4(CC[C@@]32C)OOC2(CCCCC2)OO4)[C@@H]2CC[C@H]([C@H](C)CCC(=O)O)[C@@]12C | 25.1 | 6.92 | – | – | – | –
NC(=O)C1CCC2(CC1)OOC1(CCCCC1)OO2 | 120 | 115 | – | – | – | –
COC(=O)CC[C@@H](C)[C@H]1CC[C@H]2[C@@H]3CC[C@@H]4CC5(CC[C@]4(C)[C@H]3C[C@H](OC(C)=O)[C@]12C)OOC1(CCC(C)CC1)OO5 (stereo in doubt; 13) | – | – | – | – | 4.13 | 4.96
COC(=O)CC[C@@H](C)[C@H]1CC[C@H]2[C@@H]3CC[C@@H]4CC5(CC[C@]4(C)[C@H]3C[C@H](OC(C)=O)[C@]12C)OOC1(CCC(C)CC1)OO5 (stereo in doubt; 14) | – | – | – | – | 4.6 | 5.3
